Values joined by “and” are separate entries in the source; they are usually repeats but may differ in a detail not shown here. Equal entries are not always repeated. Inconclusive results and toxic doses are left out. The calls were made as follows: active = survival T/C of 150% or more; inactive = T/C below 125% in these data.
Test system: CD2F1 mice, intracerebral L1210 leukemia, survival T/C
Assay: NCI In Vivo Anticancer Drug Screen. Data for tumor model L1210 Leukemia (intracerebral) in CD2F1 (CDF1) mice
Settings: higher = longer survival
Description: The antitumor activity of compounds was measured in mice bearing transplantable tumors. Survival or tumor size were measured and the results are expressed as the measurement made in the treated group (T) divided by the measurement made in the vehicle treated control group (C). The tumor model used in this assay is L1210 Leukemia (intracerebral) in CD2F1 (CDF1) mice

[1] = endpoint: mean survival time, dose: 2.0 mg/kg/injection, schedule: Q01DX009 (ip), vehicle: saline
[2] = endpoint: mean survival time, dose: 4.0 mg/kg/injection, schedule: Q01DX009 (ip), vehicle: saline

Measured: T/C

Cc1cn(C2CC(O)C(CO)O2)c(=O)[nH]c1=O (configuration not stated)
inactive: endpoint: median survival time, dose: 100.0 mg/kg/injection, schedule: Q01DX009 (ip), vehicle: saline with Tween-80 104 % of control | endpoint: median survival time, dose: 100.0 mg/kg/injection, schedule: Q01DX009 (ip), vehicle: saline 100 % of control and 103 % of control | endpoint: median survival time, dose: 200.0 mg/kg/injection, schedule: Q01DX009 (ip), vehicle: saline with Tween-80 107 % of control | endpoint: median survival time, dose: 200.0 mg/kg/injection, schedule: Q01DX009 (ip), vehicle: saline 98 % of control and 100 % of control | endpoint: median survival time, dose: 400.0 mg/kg/injection, schedule: Q01DX009 (ip), vehicle: saline with Tween-80 109 % of control | endpoint: median survival time, dose: 400.0 mg/kg/injection, schedule: Q01DX009 (ip), vehicle: saline 101 % of control | endpoint: median survival time, dose: 800.0 mg/kg/injection, schedule: Q01DX009 (ip), vehicle: saline with Tween-80 114 % of control | endpoint: median survival time, dose: 800.0 mg/kg/injection, schedule: Q01DX009 (ip), vehicle: saline 103 % of control and 113 % of control | endpoint: median survival time, dose: 1600.0 mg/kg/injection, schedule: Q01DX009 (ip), vehicle: saline with Tween-80 106 % of control

CSCS(=O)C[C@H](CO)NC(=O)/C=C/c1c(C)[nH]c(=O)[nH]c1=O (some centres not stated)
inactive: endpoint: median survival time, dose: 0.06 mg/kg/injection, schedule: Q01DX005 (ip), vehicle: Klucel (hydroxypropylcellulose) (HPC) 97 % of control and 102 % of control | endpoint: median survival time, dose: 0.12 mg/kg/injection, schedule: Q01DX005 (ip), vehicle: Klucel (hydroxypropylcellulose) (HPC) 100 % of control and 101 % of control | endpoint: median survival time, dose: 0.25 mg/kg/injection, schedule: Q01DX005 (ip), vehicle: Klucel (hydroxypropylcellulose) (HPC) 100 % of control and 105 % of control | endpoint: median survival time, dose: 0.5 mg/kg/injection, schedule: Q01DX005 (ip), vehicle: Klucel (hydroxypropylcellulose) (HPC) 100 % of control and 102 % of control

Cc1ncc(CO)c(C)c1O
inactive: endpoint: median survival time, dose: 128.0 mg/kg/injection, schedule: Q01DX005 (ip), vehicle: Klucel (hydroxypropylcellulose) (HPC) 105 % of control and 106 % of control | endpoint: median survival time, dose: 256.0 mg/kg/injection, schedule: Q01DX005 (ip), vehicle: Klucel (hydroxypropylcellulose) (HPC) 111 % of control and 114 % of control

CC(C)(CO)COC(=O)NC1=C(N2CC2)C(=O)C(NC(=O)OCC(C)(C)CO)=C(N2CC2)C1=O
inactive: endpoint: median survival time, dose: 0.75 mg/kg/injection, schedule: Q01DX009 (ip), vehicle: water 102 % of control and 105 % of control | endpoint: median survival time, dose: 1.5 mg/kg/injection, schedule: Q01DX009 (ip), vehicle: water 103 % of control and 108 % of control | endpoint: median survival time, dose: 3.0 mg/kg/injection, schedule: Q01DX009 (ip), vehicle: water 105 % of control and 110 % of control | endpoint: median survival time, dose: 6.0 mg/kg/injection, schedule: Q01DX009 (ip), vehicle: water 110 % of control and 113 % of control | endpoint: median survival time, dose: 12.0 mg/kg/injection, schedule: Q01DX009 (ip), vehicle: water 119 % of control and 113 % of control

O=P1(N(CCCl)CCCl)NCCCO1 (configuration not stated)
inactive: endpoint: median survival time, dose: 40.0 mg/kg/injection, schedule: Q01DX001 (ip), vehicle: saline 100 % of control | endpoint: median survival time, dose: 80.0 mg/kg/injection, schedule: Q01DX001 (ip), vehicle: saline 104 % of control | endpoint: median survival time, dose: 160.0 mg/kg/injection, schedule: Q01DX001 (ip), vehicle: saline 112 % of control | endpoint: median survival time, dose: 320.0 mg/kg/injection, schedule: Q01DX001 (ip), vehicle: saline 105 % of control

CN(Cc1cnc2nc(N)nc(N)c2n1)c1c(Cl)cc(C(=O)NC(CCC(=O)O)C(=O)O)cc1Cl (configuration not stated)
inactive: endpoint: median survival time, dose: 16.0 mg/kg/injection, schedule: Q01DX005 (ip), vehicle: saline 101 % of control and 111 % of control | endpoint: median survival time, dose: 32.0 mg/kg/injection, schedule: Q01DX005 (ip), vehicle: saline 111 % of control | endpoint: median survival time, dose: 64.0 mg/kg/injection, schedule: Q01DX005 (ip), vehicle: saline 119 % of control and 120 % of control

CN(Cc1cnc2nc(N[Si](C)(C)C)nc(N[Si](C)(C)C)c2n1)c1ccc(C(=O)NC(CCC(=O)O[Si](C)(C)C)C(=O)O[Si](C)(C)C)cc1 (configuration not stated)
inactive: endpoint: median survival time, dose: 1.9 mg/kg/injection, schedule: Q04DX003 (ip), vehicle: saline 107 % of control | endpoint: median survival time, dose: 3.8 mg/kg/injection, schedule: Q04DX003 (ip), vehicle: saline 121 % of control
active: endpoint: median survival time, dose: 30.0 mg/kg/injection, schedule: Q04DX003 (ip), vehicle: saline 150 % of control | endpoint: median survival time, dose: 60.0 mg/kg/injection, schedule: Q04DX003 (ip), vehicle: saline 157 % of control

N[C@H](C(=O)O)[C@H]1ON=C(Cl)[C@@H]1O
inactive: endpoint: mean survival time, dose: 256.0 mg/kg/injection, schedule: Q01DX009 (ip), vehicle: saline 118 % of control | endpoint: mean survival time, dose: 512.0 mg/kg/injection, schedule: Q01DX009 (ip), vehicle: saline 98 % of control | endpoint: mean survival time, dose: 1024.0 mg/kg/injection, schedule: Q01DX009 (ip), vehicle: saline 98 % of control

S=P(N1CC1)(N1CC1)N1CC1
inactive: endpoint: mean survival time, dose: 0.25 mg/kg/injection, schedule: Q01DX009 (ip), vehicle: saline 100 % of control and 104 % of control and 112 % of control | endpoint: mean survival time, dose: 0.5 mg/kg/injection, schedule: Q01DX009 (ip), vehicle: saline 102 % of control and 106 % of control (2×) | endpoint: mean survival time, dose: 1.0 mg/kg/injection, schedule: Q01DX009 (ip), vehicle: saline 104 % of control and 106 % of control and 114 % of control | [1] 124 % of control | endpoint: mean survival time, dose: 8.0 mg/kg/injection, schedule: Q01DX009 (ip), vehicle: saline 86 % of control
active: [2] 158 % of control and 162 % of control and 168 % of control

CC[n+]1ccc(Nc2ccc(NC(=O)c3ccc(Nc4cc[n+](CC)c5ccc(N)cc45)cc3)cc2)cc1
inactive: [1] 110 % of control | [2] 111 % of control
